Test results reported in article PMC7146544, “Dual Plasmepsin-Targeting Antimalarial Agents Disrupt Multiple Stages of the Malaria Parasite Life Cycle” (Cell Host & Microbe, 2020).
Like-named read-outs stand apart in the source and are kept apart here.

Experiments:
P. berghei sporozoites = assay: In vivo analysis of P. berghei liver parasite growth and transition to blood infection; design: species or system Plasmodium berghei
Method: Female BALB/c mice were infected with PbmCherryLuci sporozoites by either intravenous injection or infectious mosquito bite challenge. Mice (infected by either route) received either no treatment or were treated orally with WM382 (prepared as previously described) at doses and h post infection (hpi) as indicated. For i.v. injections, freshly isolated salivary gland sporozoites were filtered through glass wool to remove debris before 40,000 sporozoites were resuspended in 200 μL Schneider’s Insect Media immediately prior to injection. For infection by mosquito bite, the percent of mosquitoes that contained oocysts was used to place 5 infected mosquitoes in individual feeding cups (for example, if 83% of mosquitoes in the batch had oocysts then 6 mosquitoes were placed in each cup). Mice were anesthetised using ketamine/xylazine and placed on individual feeding cups to begin the infection. Mosquitoes were allowed to feed on the mice for 15 min and mice were rotated between feeding cups every min to promote probing and ensure that all mice were equally exposed to infectious mosquito bites. From day 3 – 30 post infection mice were monitored daily for the presence of parasites in Giemsa stained thin blood smears and considered to be protected from blood infection if they remained negative through this period.
In addition to monitoring thin blood smears, luciferase activity was used to measure liver infection (52 hpi), liver egress (55 hpi) and transition to initial blood infection (65 hpi) in mice infected intravenously. Briefly, mice were injected i.p. with 200 μL XenoLight D-Luciferin (PerkinElmer) and returned to their cage for 5 min prior to anesthesia by isofluorane inhalation for a further 5 min. Between 10 – 15 min post injection of D-luciferin, mice were maintained under isofluorane anesthesia and bioluminescent signal collected using an IVIS Lumina S5 system (PerkinElmer) with a medium binning factor and 3 min integration time. Bioluminescence emanating from a region of interest (ROI) covering the liver region (52 and 55 hpi) or whole animal (65 hpi) was quantified using Living Image software version 4.7.2 (PerkinElmer) and expressed as the total flux in photons/second (p/s). Background flux was measured using an identically sized ROI placed over the lower pelvic region below the liver (52 and 55 hpi) or uninfected mice (65 hpi) and is expressed as the limit of detection (LOD). The parasitemia of the first round of erythrocytic infection was measured at 65 hpi using a LSRFortessa X20 (Becton Dickinson) flow cytometer. Briefly, a drop of whole blood was collected from the tail in 200 μL human tonicity (HT) PBS and immediately analyzed. To identify infected blood cells, mCherry signal intensity was plotted against GFP signal intensity as a decoy reporter. The number of mCherry^+ / GFP^— events are reported per 1 × 10^6 whole blood cells with blood from uninfected mice used as a negative control.

[1] = Bioanalytical determination of WM382 in mouse blood by LC-MS/MS; format: in vivo; settings: SCID (huSCID), whole blood, po, huSCID mice
Method: Serial samples of peripheral blood (25 μL) were taken from the mice of the efficacy experiment in the murine P. falciparum SCID model by tail puncture at 1, 2, 4, 6 and 24 h post first and last drug administration. The samples were immediately lysed by mixing with 25 μL of water, immediately frozen on dry ice and stored at −80°C until bioanalysis (carried out at SBQ, Reinach, Switzerland). The compounds were extracted from 10 μL of each lysate with 50 μL acetonitrile containing the internal standards (reserpine at 100 ng/mL). After a centrifugation step at 50000 g for 10 min, an aliquot of 50 μL of the supernatant was transferred to an autosampler vial and analyzed. The compounds were quantified by LC-MS/MS in the selected reaction monitoring mode using HESI ionization in positive ion mode, using a TSQ Quantum Access Mass spectrometer (Thermo Fisher Scientific, San Jose, CA, USA). The compound concentration versus time data was determined.

P. berghei [2] = assay: Dose ranging test for P. berghei infection in mice; format: in vivo, Plasmodium berghei
Method: Control mice were treated orally with chloroquine for 4 days under q.d. dosing regimen at 10 mpk/day. From day 2 to 30 post infection, parasitemia was measured daily by flow cytometry and microscopy, as described above. Survival of animals to day 30 post infection, with no detectable parasites in the peripheral blood, were considered to be cured (i.e., 100% efficacy).

P. berghei [3] = assay: Merosome transfer from treated HepG2 cultures to mice; format: in vivo, Plasmodium berghei; settings: HepG2 cultures treated with 1 nM, washed
Method: To infect cells, freshly isolated PbmCherryLuci salivary gland sporozoites were resuspended in complete medium and 10^4 sporozoites added to each well (MOI 0.34) before spinoculation at 500 x g for 3 min. Sporozoites were allowed to infect cells for 3 h before washing with complete medium. […] The compound containing medium was changed the next morning before 48 hpi to prevent removal of detached cells and merosomes in the supernatant at later time points ([Sturm et al., 2006]). To measure inhibition of parasitised cell detachment in the treated cultures, each well was imaged for mCherry at 20x magnification using an Opera Phenix High Content Screening System (PerkinElmer) at 48 hpi (live cell microscopy) and again at 65 hpi following fixation with 4% formalin in PBS, and the number of mCherry^+ parasites counted using the Columbus Image Data Storage and Analysis System (PerkinElmer). Cell detachment was calculated as the percent of parasites lost from the monolayer between 48 – 65 hpi. The culture supernatant containing merosomes and detached parasitised cells from each well was collected at 65 hpi, washed once in complete media by centrifugation at 500 x g for 3 min, then i.v. injected into individual male Swiss mice. Daily Giemsa stained thin blood smears were monitored for patent blood infection as described previously.

[4] = i.v. sporozoites, 2 × 20 mpk oral
[5] = i.v. sporozoites, oral 20 mpk or 100 mpk b.i.d. at 36 and 48 hpi
[6] = mosquito bite infection, 20 mpk at 36 hpi
[7] = mosquito bite infection, 50 mpk at 36 hpi

## CCC1(CC)CC(=O)N([C@@H]2CCOc3ccc(C(=O)N[C@H]4CC(C)(C)Oc5ccccc54)cc32)C(=N)N1 [WM382]
P. berghei sporozoites; [4]
  delay to patency: > 4 days
  sterile protection against blood infection: 50%
P. berghei sporozoites; i.v. sporozoites, 2 × 100 mpk oral
  sterile protection against blood infection: 100%
P. berghei sporozoites; [5]
  killing of liver stages and liver egress by 55 hpi: did not kill P. berghei liver stages or markedly prevent liver egress in vivo
  parasite liver infection at 52 hpi: no effect
P. berghei sporozoites; [6]
  delay to patency: 2 days
  protection from blood infection: all mice developed blood infection
P. berghei sporozoites; [7]
  delay to patency: 5 days
  sterile protection: 80%
P. berghei sporozoites; mosquito bite infection, single dose 100 mpk at 36 hpi
  protection from patent infection: protect all mice from developing patent infection
P. berghei sporozoites; single dose 50 mpk 4 h before mosquito bite infection
  protection from blood infection, prophylactic treatment: did not confer any protection
[1]; 1 mg/kg, oral daily dose 1 mg/kg, read-out: AUC dose 1
  AUC: 0.06 ± 0.03 µM·h
[1]; 1 mg/kg, oral daily dose 1 mg/kg, read-out: AUC dose 4
  AUC: 0.1 ± 0.04 µM·h
[1]; 3 mg/kg, oral daily dose 3 mg/kg, read-out: AUC dose 1
  AUC: 0.5 ± 0.18 µM·h
[1]; 3 mg/kg, oral daily dose 3 mg/kg, read-out: AUC dose 4
  AUC: 0.37 ± 0.21 µM·h
[1]; 10 mg/kg, oral daily dose 10 mg/kg, read-out: AUC dose 1
  AUC: 2.61 ± 1 µM·h
[1]; 10 mg/kg, oral daily dose 10 mg/kg, read-out: AUC dose 4
  AUC: 2.62 ± 1.03 µM·h
[1]; 30 mg/kg, oral daily dose 30 mg/kg, read-out: AUC dose 1
  AUC: 7.04 ± 1.53 µM·h
[1]; 30 mg/kg, oral daily dose 30 mg/kg, read-out: AUC dose 4
  AUC: 5.17 ± 1.22 µM·h
P. berghei [2]; WM382 1 mpk oral b.i.d. 4 days
  day post-infection from which parasites were detected: 2 days
P. berghei [2]; WM382 3 mpk oral b.i.d. 4 days
  day post-infection after which parasites were detectable: > 12 days
P. berghei [2]; WM382 3 mpk oral b.i.d. 4 days, n = 4
  outcome to day 30 post-infection: one mouse remaining parasite-free on day 30 pi
P. berghei [2]; WM382 10 mpk oral b.i.d. 4 days
  outcome to day 30 post-infection: remained parasite-free
P. berghei [2]; WM382 30 mpk oral b.i.d. 4 days
  outcome to day 30 post-infection: remained parasite-free
P. berghei [2]; WM382 oral q.d. 60, 30 or 10 mpk/day, 4 days
  outcome to day 30 post-infection: cured all mice
P. berghei [3]
  blood infection of naive mice after i.v. injection of 65 hpi supernatants: Blood infection was initiated in mice
